Test results published in patent publication US4839342A, “Method of increasing tear production by topical administration of cyclosporin” (University of Georgia Research Foundation, Inc., priority 1987, dated 1989).

Test system: aqueous tear production
Experiment: Schirmer tear test in dogs with aqueous tear deficiency / KCS
Assay type: in vivo, dog
Source text: The Schirmer tear test is a test of aqueous tear production. The test depends upon observing the extent of wetting of a strip of filter paper placed over the lower lid of an eye for a specified time. Standardized strips are commercially available. The strip is folded at a notched marking and is then placed over the edge of the lateral one-third of the eyelid. The strip is usually left in place for a period of time while the patient looks straight ahead in dim light.
The degree of wetting of the paper is measured in mm from the notch. For human patients, a normal end point is 5 mm of wetting at five minutes. For canine patients, the normal tear production is 14 to 20 mm. of wetting at one minute.

[1] = Example 3 English Bulldog, three drops of 2% pilocarpine by mouth, after two hours

Compound	Schirmer tear test value, left eye [1] [mm/minute]	Schirmer tear test value, right eye [1] [mm/minute]	Schirmer tear test values, both eyes (Example 4 Miniature Poodle, one drop 2% pilocarpine by mouth two times daily with ophthalmic petrolatum, after two weeks) [mm/minute]	benefit of treatment (tear deficiency, conjunctivitis) (Example 1 Poodle, topical, both eyes twice daily for nine weeks)
CC[C@@H]1C(=O)OC[C@@H]1Cc1cncn1C [pilocarpine]	10	0	0	
C[C@@H]1C[C@H]2[C@@H]3CCC4=CC(=O)C=C[C@]4(C)[C@@]3(F)[C@@H](O)C[C@]2(C)[C@@]1(O)C(=O)CO [dexamethasone]				without benefit
